Molecular target: T1, HIV-1 protease (Human immunodeficiency virus type 1 group M subtype B, UniProt P04585)
T1 construct: The protease (or proteinase), consisting of only 99 amino acids, is among the smallest enzymes known
Test: In vitro HIV protease inhibitory assay (HIV Protease FITC Assay)
Assay type: biochemical
Settings: for inhibition at 0.41 µM: HIV-1 Dose 0.410 uM; for inhibition at 0.41 µM / inhibition at 1.23 µM / inhibition at 3.7 µM / inhibition at 11 µM / inhibition at 33 µM / inhibition at 100 µM / inhibition at 0.123 µM / inhibition at 0.37 µM / inhibition at 1.1 µM / inhibition at 3.3 µM / inhibition at 10 µM / inhibition at 30 µM / inhibition at 1 µM: read-out: HIV-1 Protease % Inhib; for inhibition at 1.23 µM: HIV-1 Dose 1.230 uM; for inhibition at 3.7 µM: HIV-1 Dose 3.700 uM; for inhibition at 11 µM: HIV-1 Dose 11.000 uM; for inhibition at 33 µM: HIV-1 Dose 33.000 uM; for inhibition at 100 µM: HIV-1 Dose 100.000 uM; for Ki: read-out: HIV-1 FITC Ki; for inhibition at 0.123 µM: HIV-1 Dose 0.123 uM; for inhibition at 0.37 µM: HIV-1 Dose 0.370 uM; for inhibition at 1.1 µM: HIV-1 Dose 1.100 uM; for inhibition at 3.3 µM: HIV-1 Dose 3.300 uM; for inhibition at 10 µM: HIV-1 Dose 10.000 uM; for inhibition at 30 µM: HIV-1 Dose 30.000 uM; for inhibition at 1 µM: HIV-1 Dose 1.000 uM
Summary of the method: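 Percent inhibition was read as fluorescence after avidin-bead capture and filtration separated FITC cleavage product from biotinylated substrate. Enzyme and substrate reacted 1 h, RT, dark, at pH 5.5 (0.1 M sodium acetate, 1.0 M NaCl, 0.05% NP-40).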

| SMILES | inhibition at 0.41 µM | inhibition at 1.23 µM | inhibition at 3.7 µM | inhibition at 11 µM | inhibition at 33 µM | inhibition at 100 µM | Ki | inhibition at 0.123 µM | inhibition at 0.37 µM | inhibition at 1.1 µM | inhibition at 3.3 µM | inhibition at 10 µM | inhibition at 30 µM | inhibition at 1 µM |
| --- | --- | --- | --- | --- | --- | --- | --- | --- | --- | --- | --- | --- | --- | --- |
| Cc1nc(CCc2cc(O)c(C(c3ccccc3)C3CC3)c(=O)o2)cs1 (centres unmarked) [Example 50, 3-(Cyclopropyl-phenyl-methyl)-4-hydroxy-6-(2-(2-methyl-thiazol-4-yl)-ethyl)-pyran-2-one] | < 10% | 22.1% | 55.5% | 80.5% | 96% | 106% | 353 nM | – | – | – | – | – | – | – |
| CCC(Cc1csc(-c2ccc(Cl)cc2)n1)c1cc(O)c(C(c2ccccc2)C2CC2)c(=O)o1 (centres unmarked) [Example 55, 6-(1-(2-(4-Chloro-phenyl)-thiazol-4-ylmethyl)-propyl)-3-(cyclopropyl-phenyl-methyl)-4-hydroxy-pyran-2-one] | < 10% | 24.1% | 59.6% | 92.1% | 89.6% | 102% | 578 nM | – | – | – | – | – | – | – |
| CCC(CCC(F)(F)F)c1cc(O)c(C(c2ccccc2)C2CC2)c(=O)o1 (centres unmarked) [Example 136, 3-(Cyclopropylphenylmethyl)-6-(1-ethyl-4,4,4-trifluorobutyl)-4-hydroxy-2H-pyran-2-one] | – | – | – | – | – | – | 52 nM | < 10% | 24.5% | 62.4% | 91.3% | 99.1% | 99.7% | – |
| CCC(c1ccccc1)c1c(O)cc(C(CC2CC2)CC2CC2)oc1=O (centres unmarked) [Example 87, 6-(2-Cyclopropyl-1-cyclopropylmethyl-ethyl)-4-hydroxy-3(1-phenyl-propyl)-pyran-2-one] | – | – | – | – | – | 90.2% | – | – | – | – | – | 83.8% | – | 17.8% |
| CCC(CC1CCCCO1)c1cc(O)c(C(c2ccccc2)C2CC2)c(=O)o1 (centres unmarked) [Example 62, 3-(Cyclopropyl-phenyl-methyl)-4-hydroxy-6-(1-(tetrahydro-pyran-2-ylmethyl)-propyl)-pyran-2-one] | 85.7% | 95.8% | 108% | 116% | 113% | 123% | 74 nM | – | – | – | – | – | – | – |
| O=c1oc(CCc2nnnn2C2CCCCC2)cc(O)c1C(c1ccccc1)C1CC1 (centres unmarked) [Example 119, 6-[2-(1-Cyclohexyl-1H-tetrazol-5-yl)-ethyl]-3-(cyclopropyl-phenyl-methyl)-4-hydroxy-2-one] | – | – | – | – | – | – | – | < 10% | < 10% | < 10% | < 10% | 20.7% | 60.3% | – |
| CCC(c1ccccc1)c1c(O)cc(Cc2ccccc2)oc1=O (stereo not drawn) [Example 2, 6-benzyl-3-(α-ethylbenzyl)-4-hydroxy-2H-Pyran-2-one] | – | – | – | – | – | 74.3% | – | – | – | – | – | 38.7% | – | < 10% |
| CCC(Cc1ccncc1)c1cc(O)c(C(c2ccccc2)C2CC2)c(=O)o1 (centres unmarked) [Example 68, 3-(Cyclopropyl-phenyl-methyl)-4-hydroxy-6-(1-pyridin-4-ylmethyl-propyl)-pyran-2-one] | – | – | – | – | – | – | 132 nM | < 10% | 15.1% | 47.7% | 80.3% | 98.7% | 112% | – |
| CCC(Cc1ccccc1)c1cc(O)c(C(c2cccc(NC(=O)[C@H](C)NC(=O)OC(C)(C)C)c2)C2CC2)c(=O)o1 (stereo partly drawn) [Example 221, 3-(α-Cyclopropyl-meta-(tert-butyloxycarbonyl-L-alanylamino)benzyl)-6-(α-ethylphenethyl)-4-hydroxy-2H-pyran-2-one] | – | – | – | – | – | – | 14.6 nM | 43.1% | 72.1% | 87.3% | 102% | 108% | 101% | – |
| CCCC1(CCCc2ccccc2)CC(O)=C(C(c2ccccc2)c2ccccc2)C(=O)O1 (centres unmarked) [Example 242, 2H-Pyran-2-one, 5,6-dihydro-3-diphenylmethyl-4-hydroxy-6-(3-phenylpropyl)-6-propyl-] | – | – | – | – | – | – | 32.3 nM | < 10% | 19.9% | 53.5% | 80.5% | 90.2% | 93.2% | – |
| CCC(CC1CCCO1)c1cc(O)c(C(c2ccccc2)C2CC2)c(=O)o1 (centres unmarked) [Example 56, 3-(Cyclopropyl-phenyl-methyl)-4-hydroxy-6-(1-(tetrahydro-furan-2-ylmethyl)-propyl)-pyran-2-one] | 92.6% | 97.7% | 106% | 117% | 119% | 109% | 37 nM | – | – | – | – | – | – | – |

Reference: patent EP1203770A1 (priority 1992, dated 1994)
